# Measurements as given in article PMC6199744, “Development of Chemical Proteomics for the Folateome and Analysis of the Kinetoplastid Folateome” (ACS Infectious Diseases, 2018).
# Like-named read-outs stand apart in the source and are kept apart here.
# Tests used:
# Assay type in all cases: binding
# [1] = target: T1, HeLa cell extract proteins (Homo sapiens, UniProt O43175)
# T1 construct: endogenous in cells; host or cells: HeLa cell extract
# T1 sequence (O43175 1-533): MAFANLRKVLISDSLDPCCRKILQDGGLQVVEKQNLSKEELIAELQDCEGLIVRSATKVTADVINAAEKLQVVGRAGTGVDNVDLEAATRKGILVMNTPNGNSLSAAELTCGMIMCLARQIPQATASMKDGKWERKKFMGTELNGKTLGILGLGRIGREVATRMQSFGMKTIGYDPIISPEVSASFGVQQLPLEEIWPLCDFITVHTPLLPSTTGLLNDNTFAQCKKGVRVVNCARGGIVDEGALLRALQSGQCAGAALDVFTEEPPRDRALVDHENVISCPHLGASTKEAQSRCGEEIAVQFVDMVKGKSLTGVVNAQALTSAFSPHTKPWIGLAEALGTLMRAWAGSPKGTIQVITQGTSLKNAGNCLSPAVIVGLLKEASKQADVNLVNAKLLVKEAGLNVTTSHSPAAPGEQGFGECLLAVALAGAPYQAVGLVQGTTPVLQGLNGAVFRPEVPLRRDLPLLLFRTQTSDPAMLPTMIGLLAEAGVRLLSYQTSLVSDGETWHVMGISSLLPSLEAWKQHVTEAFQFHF
# [2] = target: T2, HeLa cell extract proteins (Homo sapiens, UniProt Q71U36)
# T2 construct: endogenous in cells; host or cells: HeLa cell extract
# [3] = target: T3, HeLa cell extract proteins (Homo sapiens, UniProt P47712)
# T3 construct: endogenous in cells; host or cells: HeLa cell extract
# T3 sequence (P47712 1-749): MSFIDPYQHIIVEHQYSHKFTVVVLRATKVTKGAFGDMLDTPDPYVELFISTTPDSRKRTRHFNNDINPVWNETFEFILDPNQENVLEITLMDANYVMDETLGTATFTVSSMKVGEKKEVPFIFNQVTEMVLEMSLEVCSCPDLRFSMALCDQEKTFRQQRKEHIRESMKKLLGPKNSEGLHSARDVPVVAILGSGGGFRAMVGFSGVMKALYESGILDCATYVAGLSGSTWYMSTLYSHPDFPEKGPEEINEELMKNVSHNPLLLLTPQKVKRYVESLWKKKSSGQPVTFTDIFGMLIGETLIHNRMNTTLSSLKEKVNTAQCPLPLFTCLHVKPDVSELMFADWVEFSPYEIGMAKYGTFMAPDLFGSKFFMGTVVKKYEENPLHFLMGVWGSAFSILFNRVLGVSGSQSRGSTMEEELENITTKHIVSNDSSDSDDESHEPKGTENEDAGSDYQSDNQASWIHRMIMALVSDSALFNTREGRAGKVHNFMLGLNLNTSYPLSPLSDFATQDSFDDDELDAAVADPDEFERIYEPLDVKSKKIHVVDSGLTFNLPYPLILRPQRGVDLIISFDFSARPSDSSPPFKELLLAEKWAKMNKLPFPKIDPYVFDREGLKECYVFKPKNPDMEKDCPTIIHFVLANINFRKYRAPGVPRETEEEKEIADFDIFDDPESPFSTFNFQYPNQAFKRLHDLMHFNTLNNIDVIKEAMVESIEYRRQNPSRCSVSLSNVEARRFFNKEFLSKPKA
# [4] = target: T4, HeLa cell extract proteins (Homo sapiens, UniProt Q16831)
# T4 construct: endogenous in cells; host or cells: HeLa cell extract
# [5] = target: T5, HeLa cell extract proteins (Homo sapiens, UniProt Q9C0E2)
# T5 construct: endogenous in cells; host or cells: HeLa cell extract
# [6] = target: T6, HeLa cell extract proteins (Homo sapiens, UniProt Q9BUJ2)
# T6 construct: endogenous in cells; host or cells: HeLa cell extract
# T6 sequence (Q9BUJ2 1-856): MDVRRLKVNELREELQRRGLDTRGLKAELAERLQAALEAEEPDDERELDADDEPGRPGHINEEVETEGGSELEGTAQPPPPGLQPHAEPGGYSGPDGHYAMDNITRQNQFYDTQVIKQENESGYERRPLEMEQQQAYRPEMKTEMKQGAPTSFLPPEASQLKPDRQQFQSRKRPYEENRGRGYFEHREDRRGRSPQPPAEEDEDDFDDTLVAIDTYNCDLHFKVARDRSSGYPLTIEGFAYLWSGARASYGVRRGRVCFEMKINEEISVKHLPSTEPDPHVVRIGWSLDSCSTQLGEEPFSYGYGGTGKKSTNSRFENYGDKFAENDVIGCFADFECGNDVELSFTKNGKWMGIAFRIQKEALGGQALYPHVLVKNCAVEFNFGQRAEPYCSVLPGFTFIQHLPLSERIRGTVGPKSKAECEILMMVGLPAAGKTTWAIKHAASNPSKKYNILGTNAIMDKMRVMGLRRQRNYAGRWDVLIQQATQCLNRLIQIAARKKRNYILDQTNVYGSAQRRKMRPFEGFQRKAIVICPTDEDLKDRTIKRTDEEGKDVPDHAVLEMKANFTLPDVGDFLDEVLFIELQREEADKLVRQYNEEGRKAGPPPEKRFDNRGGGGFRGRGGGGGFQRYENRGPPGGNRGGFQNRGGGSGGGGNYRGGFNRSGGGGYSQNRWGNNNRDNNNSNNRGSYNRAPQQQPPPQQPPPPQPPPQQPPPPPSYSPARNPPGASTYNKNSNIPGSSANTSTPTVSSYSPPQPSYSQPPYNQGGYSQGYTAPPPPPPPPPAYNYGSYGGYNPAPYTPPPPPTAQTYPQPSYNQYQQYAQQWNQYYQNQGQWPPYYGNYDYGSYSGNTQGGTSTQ
# [7] = target: T7, HeLa cell extract proteins (Homo sapiens, UniProt O95372)
# T7 construct: endogenous in cells; host or cells: HeLa cell extract
# [8] = HeLa, protein UPP1 (ISOFORM 1 OF URIDINE PHOSPHORYLASE 1)
# [9] = HeLa, captured protein HNRNPUL1
# T5 sequence (Q9C0E2 whole entry): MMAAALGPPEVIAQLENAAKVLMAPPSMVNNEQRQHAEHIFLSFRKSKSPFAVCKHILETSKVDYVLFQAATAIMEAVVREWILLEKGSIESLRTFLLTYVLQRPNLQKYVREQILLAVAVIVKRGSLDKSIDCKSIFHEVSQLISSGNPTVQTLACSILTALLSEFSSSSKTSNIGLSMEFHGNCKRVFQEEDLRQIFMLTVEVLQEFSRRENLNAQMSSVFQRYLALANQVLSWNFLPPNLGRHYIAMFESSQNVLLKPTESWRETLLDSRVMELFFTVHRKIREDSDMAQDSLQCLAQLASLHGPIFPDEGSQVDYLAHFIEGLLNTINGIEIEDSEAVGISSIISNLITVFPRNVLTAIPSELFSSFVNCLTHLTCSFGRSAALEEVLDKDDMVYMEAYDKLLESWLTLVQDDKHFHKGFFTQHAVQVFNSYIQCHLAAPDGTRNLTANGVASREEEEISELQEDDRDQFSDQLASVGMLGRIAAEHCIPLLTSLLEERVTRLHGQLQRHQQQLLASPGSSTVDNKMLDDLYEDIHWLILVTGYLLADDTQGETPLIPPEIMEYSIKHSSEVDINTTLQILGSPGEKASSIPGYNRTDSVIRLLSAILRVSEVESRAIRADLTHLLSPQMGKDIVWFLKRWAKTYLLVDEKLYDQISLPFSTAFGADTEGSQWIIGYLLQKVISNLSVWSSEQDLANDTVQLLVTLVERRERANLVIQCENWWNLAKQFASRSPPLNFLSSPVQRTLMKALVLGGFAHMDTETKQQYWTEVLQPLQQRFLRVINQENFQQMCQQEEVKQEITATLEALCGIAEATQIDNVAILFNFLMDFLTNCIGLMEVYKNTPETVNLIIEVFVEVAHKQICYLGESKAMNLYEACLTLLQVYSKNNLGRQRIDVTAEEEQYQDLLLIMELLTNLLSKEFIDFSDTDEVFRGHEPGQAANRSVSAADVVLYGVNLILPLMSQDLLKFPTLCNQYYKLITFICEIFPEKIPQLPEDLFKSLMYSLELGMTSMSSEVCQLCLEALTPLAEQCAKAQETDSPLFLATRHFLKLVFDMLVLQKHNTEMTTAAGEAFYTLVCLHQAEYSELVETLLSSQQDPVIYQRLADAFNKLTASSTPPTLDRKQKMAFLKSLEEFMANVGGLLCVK
# T4 sequence (Q16831 whole entry): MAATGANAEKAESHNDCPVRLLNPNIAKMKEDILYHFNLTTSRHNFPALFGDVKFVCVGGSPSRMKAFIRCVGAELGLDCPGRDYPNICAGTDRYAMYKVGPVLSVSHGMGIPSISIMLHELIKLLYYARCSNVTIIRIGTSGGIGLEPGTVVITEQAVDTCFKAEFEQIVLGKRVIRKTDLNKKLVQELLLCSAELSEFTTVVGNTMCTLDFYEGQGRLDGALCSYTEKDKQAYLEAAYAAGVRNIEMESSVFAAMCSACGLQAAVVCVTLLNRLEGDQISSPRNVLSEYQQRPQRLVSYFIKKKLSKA
# T2 sequence (Q71U36 whole entry): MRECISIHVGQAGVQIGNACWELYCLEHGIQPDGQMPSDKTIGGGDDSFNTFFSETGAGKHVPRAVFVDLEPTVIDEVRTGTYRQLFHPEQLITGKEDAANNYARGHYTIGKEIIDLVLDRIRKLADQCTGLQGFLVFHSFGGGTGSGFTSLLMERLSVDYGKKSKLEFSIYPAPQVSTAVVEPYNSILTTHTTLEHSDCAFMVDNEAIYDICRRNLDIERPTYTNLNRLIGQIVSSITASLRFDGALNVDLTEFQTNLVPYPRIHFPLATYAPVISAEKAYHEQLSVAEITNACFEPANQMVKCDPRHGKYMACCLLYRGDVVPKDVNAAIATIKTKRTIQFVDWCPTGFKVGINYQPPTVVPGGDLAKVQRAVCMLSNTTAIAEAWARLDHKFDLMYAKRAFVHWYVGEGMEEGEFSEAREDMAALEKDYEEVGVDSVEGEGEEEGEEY
# T7 sequence (O95372 whole entry): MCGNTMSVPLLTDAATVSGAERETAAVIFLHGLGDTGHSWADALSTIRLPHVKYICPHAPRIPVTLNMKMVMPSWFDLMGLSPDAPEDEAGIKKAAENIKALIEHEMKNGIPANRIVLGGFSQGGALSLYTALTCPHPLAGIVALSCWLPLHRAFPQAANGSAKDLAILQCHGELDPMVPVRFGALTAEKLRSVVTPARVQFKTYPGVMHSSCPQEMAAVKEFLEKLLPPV
smiles,measurement,setting,value
"Nc1nc2c(c(=O)[nH]1)N(C=O)C(CNc1ccc(C(=O)N[C@@H](CCC(=O)O)C(=O)O)cc1)CN2 (stereo partly shown) [LEU, leucovorin]",fold changes relative to vehicle control,"[1]; protein PHGDH, HeLa",0.88
same,fold changes relative to vehicle control,"[2]; HeLa, protein TUBA1A",0.95
same,fold changes relative to vehicle control,"[3]; HeLa, protein PLA2G4A",0.94
same,fold changes relative to vehicle control,[4]; [8],1.01
same,fold changes relative to vehicle control,"[5]; HeLa, protein XPO4",0.92
same,fold changes relative to vehicle control,[6]; [9],0.99
same,fold changes relative to vehicle control,"[7]; protein LYPLA2, HeLa",0.89
"Nc1nc2[nH]cc(CCc3ccc(C(=O)N[C@@H](CCC(=O)O)C(=O)O)cc3)c2c(=O)[nH]1 [PTX, pemetrexed]",fold changes relative to vehicle control,[1],0.93
same,fold changes relative to vehicle control,[2],0.91
same,fold changes relative to vehicle control,[3],1.13
same,fold changes relative to vehicle control,[4],1.11
same,fold changes relative to vehicle control,[5],0.82
same,fold changes relative to vehicle control,[6],1.04
same,fold changes relative to vehicle control,[7],0.99
CCCCCCOc1ccc(Cc2cnc(N)nc2N)cc1 [compound 1],fold changes relative to vehicle control,"[1]; protein PHGDH, HeLa",0.99
same,fold changes relative to vehicle control,"[2]; HeLa, protein TUBA1A",0.95
same,fold changes relative to vehicle control,"[3]; protein PLA2G4A, HeLa",1
same,fold changes relative to vehicle control,"[4]; HeLa, protein UPP1",0.88
same,fold changes relative to vehicle control,"[5]; HeLa, protein XPO4",0.91
same,fold changes relative to vehicle control,"[6]; protein HNRNPUL1, HeLa",0.83
same,fold changes relative to vehicle control,"[7]; HeLa, protein LYPLA2",0.82
CCCCCCOc1cccc(Cc2cnc(N)nc2N)c1 [compound 2],fold changes relative to vehicle control,"[1]; protein PHGDH, HeLa",1.25
same,fold changes relative to vehicle control,"[2]; HeLa, protein TUBA1A",0.92
same,fold changes relative to vehicle control,"[3]; protein PLA2G4A, HeLa",1.72
same,fold changes relative to vehicle control,"[4]; HeLa, protein UPP1",1.16
same,fold changes relative to vehicle control,"[5]; HeLa, protein XPO4",1.08
same,fold changes relative to vehicle control,"[6]; protein HNRNPUL1, HeLa",0.86
same,fold changes relative to vehicle control,"[7]; HeLa, protein LYPLA2",1.19
Nc1nc2cccc(-c3ccccc3)c2n1Cc1ccc(Cl)c(Cl)c1 [compound 3],fold changes relative to vehicle control,"[1]; protein PHGDH, HeLa",1.5
same,fold changes relative to vehicle control,"[2]; HeLa, protein TUBA1A",1.06
same,fold changes relative to vehicle control,"[3]; protein PLA2G4A, HeLa",0.91
same,fold changes relative to vehicle control,"[4]; HeLa, protein UPP1",1.05
same,fold changes relative to vehicle control,"[5]; HeLa, protein XPO4",1.07
same,fold changes relative to vehicle control,"[6]; protein HNRNPUL1, HeLa",0.89
same,fold changes relative to vehicle control,"[7]; HeLa, protein LYPLA2",0.97
NCCOCCOCC(=O)Nc1nc2ncc(CNc3ccc(C(=O)NC(CCC(=O)O)C(=O)O)cc3)nc2c(=O)[nH]1 (stereo not shown) [compound 6],fold changes relative to vehicle control,"[1]; protein PHGDH, HeLa",1.06
same,fold changes relative to vehicle control,"[2]; HeLa, protein TUBA1A",0.97
same,fold changes relative to vehicle control,"[3]; HeLa, protein PLA2G4A",1.18
same,fold changes relative to vehicle control,[4]; [8],0.44
same,fold changes relative to vehicle control,"[5]; HeLa, protein XPO4",0.94
same,fold changes relative to vehicle control,[6]; [9],1.05
same,fold changes relative to vehicle control,"[7]; protein LYPLA2, HeLa",1.09
NCCCNc1ccc(C(=O)NC(CCC(=O)O)C(=O)O)cc1 (stereo not shown) [compound 7],fold changes relative to vehicle control,"[1]; protein PHGDH, HeLa",1.06
same,fold changes relative to vehicle control,"[2]; HeLa, protein TUBA1A",1
same,fold changes relative to vehicle control,"[3]; HeLa, protein PLA2G4A",0.88
same,fold changes relative to vehicle control,[4]; [8],0.96
same,fold changes relative to vehicle control,"[5]; HeLa, protein XPO4",1
same,fold changes relative to vehicle control,[6]; [9],1.07
same,fold changes relative to vehicle control,"[7]; protein LYPLA2, HeLa",1.01
